Measured values taken from patent US20240300927A1, “AMIDES AS CBL-B INHIBITORS” (Genentech, Inc., priority 2021, published 2024).

Tests used:
[1] = target: Cbl-b (Homo sapiens (Human), UniProt Q13191); experiment: Cbl-b LCK Ub TR-FRET assay (Cbl-b Lck HTRF); type: biochemical; settings: for (fold-selectivity): Cbl-b and C-Cbl selectivity, Lck HTRF; for IC50: read-out: Cbl-b Lck HTRF IC50
Procedure, shortened: (§1)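 Biotin-Cbl-b (16 nM) or biotin-c-Cbl (12 nM) at 2× preincubated with compound 60 min, then His-LCK (120 nM), 1 mM ATP and MgCl2 (2× mix) added for 90 min at RT. Buffer: HEPES pH 7.0, DTT. UBE2D2–HA-ubiquitin transfer read by TR-FRET (665/615 nm); IC50 versus no-LCK and DMSO controls, 10-point dilutions.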

[2] = target: c-Cbl (Homo sapiens (Human), UniProt P22681); experiment: C-cbl LCK Ub TR-FRET assay (C-cbl Lck HTRF); type: biochemical
Procedure, shortened: as §1

Chain of c-Cbl (P22681 47-435): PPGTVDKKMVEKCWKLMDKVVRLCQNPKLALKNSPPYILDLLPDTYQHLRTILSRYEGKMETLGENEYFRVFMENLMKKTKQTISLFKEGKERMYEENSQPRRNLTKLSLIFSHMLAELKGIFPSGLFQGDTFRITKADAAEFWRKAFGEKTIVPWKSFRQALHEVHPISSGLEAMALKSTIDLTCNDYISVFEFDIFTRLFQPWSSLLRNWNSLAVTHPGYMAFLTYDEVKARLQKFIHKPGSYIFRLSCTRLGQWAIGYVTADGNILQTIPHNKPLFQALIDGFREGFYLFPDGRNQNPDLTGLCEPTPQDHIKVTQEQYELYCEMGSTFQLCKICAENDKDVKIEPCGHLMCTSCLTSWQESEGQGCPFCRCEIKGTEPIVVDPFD
Chain of Cbl-b (Q13191 40-426): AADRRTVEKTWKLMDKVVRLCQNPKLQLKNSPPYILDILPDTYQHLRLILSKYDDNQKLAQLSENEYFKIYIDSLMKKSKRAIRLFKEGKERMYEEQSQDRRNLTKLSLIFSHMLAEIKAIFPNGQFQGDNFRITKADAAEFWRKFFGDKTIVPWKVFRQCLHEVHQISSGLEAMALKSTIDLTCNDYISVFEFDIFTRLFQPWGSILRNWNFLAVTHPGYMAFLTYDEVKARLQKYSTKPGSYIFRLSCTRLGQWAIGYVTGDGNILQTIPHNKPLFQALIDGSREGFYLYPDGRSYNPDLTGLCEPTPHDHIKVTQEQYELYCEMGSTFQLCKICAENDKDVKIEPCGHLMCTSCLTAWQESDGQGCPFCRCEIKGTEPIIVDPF

| SMILES | (fold-selectivity) [1] | IC50 [1] [nM] | IC50 [2] [nM] |
| --- | --- | --- | --- |
| Cn1cnnc1CC1(c2cccc(NC(=O)c3cc(CN4CC(C)(O)C4)cc(C4CC4)n3)c2)CC(F)(F)C1 [Compound 495, 6-cyclopropyl-N-(3-(3,3-difluoro-1-((4-methyl-4H-1,2,4-triazol-3-yl)methyl)cyclobutyl)phenyl)-4-((3-hydroxy-3-methylazetidin-1-yl)methyl)picolinamide] | (0.68x) | 17 | 12 |
| Cn1cnnc1[C@H](F)C1(c2cccc(NC(=O)c3cc(CN4CC(C)(CO)C4)cc(C4CC4)n3)c2)CC(F)(F)C1 [Compound 497, (R)-6-cyclopropyl-N-(3-(3,3-difluoro-1-(fluoro(4-methyl-4H-1,2,4-triazol-3-yl)methyl)cyclobutyl)phenyl)-4-((3-(hydroxymethyl)-3-methylazetidin-1-yl)methyl)picolinamide] | (0.95x) | 34 | 33 |
| CC(C)[C@H]1CN(C)CCN1Cc1cc(C(=O)Nc2cccc(C3(Cc4nncn4C)COC3)c2)nc(C2CC2)c1 [Compound 498, (S)-6-cyclopropyl-4-((2-isopropyl-4-methylpiperazin-1-yl)methyl)-N-(3-(3-((4-methyl-4H-1,2,4-triazol-3-yl)methyl)oxetan-3-yl)phenyl)picolinamide] | (0.62x) | 10 | 6.2 |
| CC(C)[C@H]1CN(C)CCN1Cc1cc(C(=O)Nc2cccc(C3([C@H](F)c4nncn4C)COC3)c2)nc(C2CC2)c1 [Compound 500, 6-cyclopropyl-N-(3-(3-((S)-fluoro(4-methyl-4H-1,2,4-triazol-3-yl)methyl)oxetan-3-yl)phenyl)-4-(((S)-2-isopropyl-4-methylpiperazin-1-yl)methyl)picolinamide] | (0.82x) | 9.9 | 8 |
| Cn1cnnc1[C@H](F)[C@]1(c2cccc(NC(=O)c3cccc(C(F)(F)F)n3)c2)CCO1 [Compound 503, N-(3-((R)-2-((S)-fluoro(4-methyl-4H-1,2,4-triazol-3-yl)methyl)oxetan-2-yl)phenyl)-6-(trifluoromethyl)picolinamide] | (0.85x) | 20000 | 17000 |
| Cn1cnnc1CC1(c2cccc(NC(=O)c3cc(C(CC4CC4)N4CCC5(CC5)C4)cc(C(F)(F)F)n3)c2)COC1 (stereo not drawn) [Compound 505, 4-(2-cyclopropyl-1-(5-azaspiro[2.4]heptan-5-yl)ethyl)-N-(3-(3-((4-methyl-4H-1,2,4-triazol-3-yl)methyl)oxetan-3-yl)phenyl)-6-(trifluoromethyl)picolinamide] | (1.5x) | 26 | 39 |
| Cn1cnnc1CC1(c2cccc(NC(=O)c3cc(CC(N)=O)cc(C(F)(F)F)n3)c2)COC1 [Compound 507, 4-(2-amino-2-oxoethyl)-N-(3-(3-((4-methyl-4H-1,2,4-triazol-3-yl)methyl)oxetan-3-yl)phenyl)-6-(trifluoromethyl)picolinamide] | (0.89x) | 100 | 89 |

The remaining lines, values ahead:

| (fold-selectivity) [1] | IC50 [1] [nM] | IC50 [2] [nM] | SMILES |
| --- | --- | --- | --- |
| (0.76x) | 13 | 10 | Cn1cnnc1CC1(c2cccc(NC(=O)c3cc(CN4CC(C)(CO)C4)cc(C4CC4)n3)c2)CC(F)(F)C1 [Compound 496, 6-cyclopropyl-N-(3-(3,3-difluoro-1-((4-methyl-4H-1,2,4-triazol-3-yl)methyl)cyclobutyl)phenyl)-4-((3-(hydroxymethyl)-3-methylazetidin-1-yl)methyl)picolinamide] |
| (0.63x) | 11 | 7 | CC(C)[C@H]1CN(C)CCN1Cc1cc(C(=O)Nc2cccc(C3([C@@H](F)c4nncn4C)COC3)c2)nc(C2CC2)c1 [Compound 499, 6-cyclopropyl-N-(3-(3-((R)-fluoro(4-methyl-4H-1,2,4-triazol-3-yl)methyl)oxetan-3-yl)phenyl)-4-(((S)-2-isopropyl-4-methylpiperazin-1-yl)methyl)picolinamide] |
| (1.1x) | 15000 | 17000 | Cn1cnnc1[C@H](F)[C@@]1(c2cccc(NC(=O)c3cccc(C(F)(F)F)n3)c2)CCO1 [Compound 501, N-(3-((S)-2-((S)-fluoro(4-methyl-4H-1,2,4-triazol-3-yl)methyl)oxetan-2-yl)phenyl)-6-(trifluoromethyl)picolinamide] |
| (1.0x) | 20000 | 20000 | Cn1cnnc1[C@@H](F)[C@@]1(c2cccc(NC(=O)c3cccc(C(F)(F)F)n3)c2)CCO1 [Compound 502, N-(3-((S)-2-((R)-fluoro(4-methyl-4H-1,2,4-triazol-3-yl)methyl)oxetan-2-yl)phenyl)-6-(trifluoromethyl)picolinamide] |
| (0.55x) | 16000 | 8700 | Cn1cnnc1[C@@H](F)[C@]1(c2cccc(NC(=O)c3cccc(C(F)(F)F)n3)c2)CCO1 [Compound 504, N-(3-((R)-2-((R)-fluoro(4-methyl-4H-1,2,4-triazol-3-yl)methyl)oxetan-2-yl)phenyl)-6-(trifluoromethyl)picolinamide] |
| (1.1x) | 150 | 160 | Cn1cnnc1CC1(c2cccc(NC(=O)c3cc(CCO)cc(C(F)(F)F)n3)c2)COC1 [Compound 506, 4-(2-hydroxyethyl)-N-(3-(3-((4-methyl-4H-1,2,4-triazol-3-yl)methyl)oxetan-3-yl)phenyl)-6-(trifluoromethyl)picolinamide] |
